In patent publication US7932270B2 (Cytokinetics, Inc., priority 2006, dated 2011):

Target: T1, chicken gizzard smooth muscle myosin subfragment-1 chemically crosslinked to cardiac or skeletal actin (Gallus gallus, UniProt P10587)
T1 construct: chicken gizzard smooth muscle myosin subfragment-1; from tissue; host or cells: chicken gizzard
Experiment: Smooth muscle myosin ATPase dose response assay (pyruvate kinase/horseradish peroxidase/pyruvate oxidase-coupled, amplex red fluorescence)
Assay type: biochemical
Conditions: read-out: IC50 Arithmetic Mean
Procedure, shortened: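 Inhibition is measured in a peroxidase/pyruvate oxidase-linked format at pH 7.00 and 22° C, 0.15 mM ATP final. Myosin input is titrated to a target turnover since active fraction differs between preparations.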

T1 sequence (P02607 2-151): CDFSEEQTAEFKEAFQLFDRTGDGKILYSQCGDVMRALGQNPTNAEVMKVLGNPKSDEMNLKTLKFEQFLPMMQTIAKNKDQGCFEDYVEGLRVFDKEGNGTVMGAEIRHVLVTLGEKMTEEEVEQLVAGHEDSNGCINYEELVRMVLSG
T1 sequence (P10587 84-789): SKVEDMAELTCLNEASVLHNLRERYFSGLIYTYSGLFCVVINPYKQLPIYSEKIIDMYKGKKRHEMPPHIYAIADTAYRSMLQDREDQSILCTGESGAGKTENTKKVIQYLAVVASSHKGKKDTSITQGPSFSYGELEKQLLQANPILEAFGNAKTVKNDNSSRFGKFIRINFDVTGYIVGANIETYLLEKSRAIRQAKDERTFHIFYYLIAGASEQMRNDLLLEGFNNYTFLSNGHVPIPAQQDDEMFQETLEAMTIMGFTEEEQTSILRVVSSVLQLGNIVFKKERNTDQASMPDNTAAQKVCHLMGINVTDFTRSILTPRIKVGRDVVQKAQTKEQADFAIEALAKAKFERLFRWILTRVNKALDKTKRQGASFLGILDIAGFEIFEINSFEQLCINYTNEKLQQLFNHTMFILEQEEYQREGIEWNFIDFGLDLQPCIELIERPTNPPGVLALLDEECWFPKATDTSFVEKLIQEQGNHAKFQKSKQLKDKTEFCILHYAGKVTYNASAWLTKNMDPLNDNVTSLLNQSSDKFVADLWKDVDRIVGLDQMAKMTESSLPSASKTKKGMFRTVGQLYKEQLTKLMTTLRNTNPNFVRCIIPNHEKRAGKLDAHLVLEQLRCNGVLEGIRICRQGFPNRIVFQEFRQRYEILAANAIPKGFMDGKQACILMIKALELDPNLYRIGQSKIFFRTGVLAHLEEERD

CC(=O)N1CCN(c2ccc(CNC(=O)c3ccc(-c4ccccc4C#N)nc3NCCc3cccc(F)c3)cn2)CC1 [N-{[6-(4-acetylpiperazinyl)(3-pyridyl)]methyl}(6-(2-cyanophenyl)-2-{[2-(3-fluorophenyl)ethyl]amino}(3-pyridyl))carboxamide]
IC50: 7750 nM

N#Cc1ccccc1-c1ccc(C(=O)NC[C@H]2CCCNC2)c(NCCc2cccc(F)c2)n1 [N-[((3S)(3-piperidyl))methyl](6-(2-cyanophenyl)-2-{[2-(3-fluorophenyl)ethyl]amino}(3-pyridyl))carboxamide]
IC50: 1970 nM

N#Cc1ccccc1-c1ccc(C(=O)NC[C@H]2CCCN2C(=O)CN)c(NCCc2cccc(F)c2)n1 [N-{[(2R)-1-(2-aminoacetyl)pyrrolidin-2-yl]methyl}(6-(2-cyanophenyl)-2-{[2-(3-fluorophenyl)ethyl]amino}(3-pyridyl))carboxamide]
IC50: 25 nM

CN[C@H](C)CNC(=O)c1ccc(-c2ccccc2C#N)nc1NCCc1cccc(F)c1 [N-[(2R)-2-(methylamino)propyl](6-(2-cyanophenyl)-2-{[2-(3-fluorophenyl)ethyl]amino}(3-pyridyl))carboxamide]
IC50: 1890 nM

N#Cc1ccccc1-c1ccc(C(=O)NC[C@@H]2CCCN2C(=O)CCN)c(NCCc2cccc(F)c2)n1 [N-{[(2S)-1-(3-aminopropanoyl)pyrrolidin-2-yl]methyl}(6-(2-cyanophenyl)-2-{[2-(3-fluorophenyl)ethyl]amino}(3-pyridyl))carboxamide]
IC50: 1860 nM

C[C@@H](N)C(=O)N1CCCC[C@@H]1CNC(=O)c1ccc(-c2ccccc2C#N)nc1NCCc1cccc(F)c1 [N-{[(2R)-1-((2R)-2-aminopropanoyl)(2-piperidyl)]methyl}(6-(2-cyanophenyl)-2-{[2-(3-fluorophenyl)ethyl]amino}(3-pyridyl))carboxamide]
IC50: 261 nM

O=Cc1sccc1-c1ccc(C(=O)NCc2cccnc2)c(NCCc2cccc(F)c2)n1 [(2-{[2-(3-fluorophenyl)ethyl]amino}-6-(2-formyl(3-thienyl))(3-pyridyl))-N-(3-pyridylmethyl)carboxamide]
IC50: 1480 nM

O=C(NC[C@@H]1CCCO1)c1ccc(-c2ccccc2)nc1NCCc1ccccn1 [N-[((2S)oxolan-2-yl)methyl]{6-phenyl-2-[(2-(2-pyridyl)ethyl)amino](3-pyridyl)}carboxamide]
IC50: 6820 nM

CC(C)(C)OC(=O)NCCCN1CCC(CNC(=O)c2ccc(-c3cn[nH]c3)nc2NCCc2cccc(F)c2)C1=O (centres unmarked) [N-[(1-{3-[(tert-butoxy)carbonylamino]propyl}-2-oxopyrrolidin-3-yl)methyl](2-{[2-(3-fluorophenyl)ethyl]amino}-6-pyrazol-4-yl(3-pyridyl))carboxamide]
IC50: 589 nM

C[C@@H](CO)CNC(=O)c1ccc(-c2ccccc2C#N)nc1NCCc1cccc(F)c1 [N-((2R)-3-hydroxy-2-methylpropyl)(6-(2-cyanophenyl)-2-{[2-(3-fluorophenyl)ethyl]amino}(3-pyridyl))carboxamide]
IC50: 61 nM

Cn1cc(-c2nc(NCCc3cccc(F)c3)c(C(=O)NC[C@H]3CCN3C(=O)COC(=O)CN)cc2F)cn1 [2-((2R)-2-{[(5-fluoro-2-{[2-(3-fluorophenyl)ethyl]amino}-6-(1-methylpyrazol-4-yl)(3-pyridyl))carbonylamino]methyl}azetidinyl)-2-oxoethyl 2-aminoacetate]
IC50: 45 nM

O=C(NCc1ccno1)c1ccc(-c2ccccc2)nc1NCCc1ccccn1 [N-(isoxazol-5-ylmethyl){6-phenyl-2-[(2-(2-pyridyl)ethyl)amino](3-pyridyl)}carboxamide]
IC50: 836 nM

C[N+]1(C)CCC[C@@H]1CNC(=O)c1ccc(-c2ccccc2C#N)nc1NCCc1cccc(F)c1
IC50: 2050 nM

CS(=O)(=O)N1CC(=O)N[C@@H](CNC(=O)c2ccc(-c3ccccc3C#N)nc2NCCc2cccc(F)c2)C1 (stereo in doubt) [(6-(2-cyanophenyl)-2-{[2-(3-fluorophenyl)ethyl]amino}(3-pyridyl))-N-{[4-(methylsulfonyl)-6-oxopiperazin-2-yl]methyl}carboxamide]
IC50: 2560 nM

CC(C)C[C@H](CNC(=O)c1ccc(-c2ccccc2C#N)nc1NCCc1cccc(F)c1)NC(=O)CO [N-((1R)-1-{[(6-(2-cyanophenyl)-2-{[2-(3-fluorophenyl)ethyl]amino}(3-pyridyl))carbonylamino]methyl}-3-methylbutyl)-2-hydroxyacetamide]
IC50: 1170 nM

CC(=O)N1CCN(C(C)=O)[C@@H](CNC(=O)c2ccc(-c3ccccc3C#N)nc2NCCc2cccc(F)c2)C1 [N-[((2S)-1,4-diacetylpiperazin-2-yl)methyl](6-(2-cyanophenyl)-2-{[2-(3-fluorophenyl)ethyl]amino}(3-pyridyl))carboxamide]
IC50: 17200 nM

O=C(NCC(CO)CO)c1cc(F)c(-c2cn[nH]c2)nc1NCCc1cccc(F)c1 [(5-fluoro-2-{[2-(3-fluorophenyl)ethyl]amino}-6-pyrazol-4-yl(3-pyridyl))-N-[3-hydroxy-2-(hydroxymethyl)propyl]carboxamide]
IC50: 215 nM

CC(=O)N1CCC[C@@H](CNC(=O)c2ccc(-c3ccccc3C#N)nc2NCCc2cccc(F)c2)C1 [N-[((3S)-1-acetyl(3-piperidyl))methyl](6-(2-cyanophenyl)-2-{[2-(3-fluorophenyl)ethyl]amino}(3-pyridyl))carboxamide]
IC50: 10700 nM

CN1CCN[C@@H](CNC(=O)c2ccc(-c3ccccc3C#N)nc2NCCc2cccc(F)c2)C1 [N-[((2S)-4-methylpiperazin-2-yl)methyl](6-(2-cyanophenyl)-2-{[2-(3-fluorophenyl)ethyl]amino}(3-pyridyl))carboxamide]
IC50: 2920 nM

Cn1cc(-c2nc(NCCc3cccc(F)c3)c(C(=O)NC[C@H](CO)NC(=O)OC(C)(C)C)cc2F)cn1 [N-((1R)-1-{[(5-fluoro-2-{[2-(3-fluorophenyl)ethyl]amino}-6-(1-methylpyrazol-4-yl)(3-pyridyl))carbonylamino]methyl}-2-hydroxyethyl)(tert-butoxy)carboxamide]
IC50: 25900 nM

O=C(NCc1ccccc1)c1ccc(-c2ccccc2)nc1NCCc1ccccn1 [N-benzyl{6-phenyl-2-[(2-(2-pyridyl)ethyl)amino](3-pyridyl)}carboxamide]
IC50: 1560 nM

N#Cc1ccccc1-c1ccc(C(=O)NC[C@@H]2CN(CCN)CC(=O)N2)c(NCCc2cccc(F)c2)n1 [N-{[(2R)-4-(2-aminoethyl)-6-oxopiperazin-2-yl]methyl}(6-(2-cyanophenyl)-2-{[2-(3-fluorophenyl)ethyl]amino}(3-pyridyl))carboxamide]
IC50: 8470 nM

CC(C)(C)OC(=O)N1CC[C@@H]1CNC(=O)c1ccc(-c2cn[nH]c2)nc1NCCc1cccc(F)c1 [tert-butyl (2R)-2-{[(2-{[2-(3-fluorophenyl)ethyl]amino}-6-pyrazol-4-yl(3-pyridyl))carbonylamino]methyl}azetidinecarboxylate]
IC50: 525 nM

COC(=O)[C@H](N)CNC(=O)c1cc(F)c(-c2cnn(C)c2)nc1NCCc1cccc(F)c1 [methyl (2R)-2-amino-3-[(5-fluoro-2-{[2-(3-fluorophenyl)ethyl]amino}-6-(1-methylpyrazol-4-yl)(3-pyridyl))carbonylamino]propanoate]
IC50: 568 nM

N#Cc1ccccc1-c1ccc(C(=O)NCCNC(=O)CN)c(NCCc2cccc(F)c2)n1 [2-amino-N-{2-[(6-(2-cyanophenyl)-2-{[2-(3-fluorophenyl)ethyl]amino}(3-pyridyl))carbonylamino]ethyl}acetamide]
IC50: 1230 nM

C[C@@H](CNC(=O)c1ccc(-c2ccccc2C#N)nc1NCCc1cccc(F)c1)N(C)C(=O)CCCN
IC50: 6830 nM
